{"source": "paper PMC3029496", "about": "(Biochemistry, 2010)", "key": {"[1]": {"biological_target": "T1, PncA (Mycobacterium tuberculosis, UniProt I6XD65)", "T1 sequence (I6XD65 whole entry)": "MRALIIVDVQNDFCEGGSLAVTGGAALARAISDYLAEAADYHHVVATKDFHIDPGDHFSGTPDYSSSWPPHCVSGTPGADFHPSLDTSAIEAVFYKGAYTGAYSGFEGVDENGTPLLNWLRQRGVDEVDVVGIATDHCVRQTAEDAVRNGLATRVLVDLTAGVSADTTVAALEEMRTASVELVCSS", "assay": "biochemical", "assay_type": "biochemical"}, "[2]": {"biological_target": "Mycobacterium tuberculosis PncA (MtPncA) (Mycobacterium tuberculosis, UniProt I6XD65)", "sequence (I6XD65 whole entry)": "as above"}, "[3]": {"biological_target": "T1, PncA", "assay": "Inactivation of PncA by iodoacetamide", "assay_type": "biochemical", "conditions": "concentration and pH dependent loss of activity"}, "[4]": {"tested_on": "NC(=O)c1cnccn1", "assay": "purified protein, by the assay type", "conditions": "pH 7.5; 25.0 °C"}, "[5]": {"biological_target": "T1, PncA", "assay_type": "biochemical"}}, "note": "Like-named read-outs stand apart in the source and are kept apart here.", "data": [{"compound": "O=Cc1cccnc1", "note": "[3-pyridine carboxaldehyde]", "values": [{"measurement": "mode of inhibition", "setting": "[1]", "result": "competitive inhibitor"}]}, {"compound": "N#Cc1cccnc1", "note": "[3-pyridinecarbonitrile]", "values": [{"measurement": "enzymatic activity with the compound as substrate", "setting": "[2]", "result": "Neither compound is a substrate"}, {"measurement": "mode of inhibition", "setting": "[1]", "result": "reversible, competitive inhibitor"}, {"measurement": "Ki", "setting": "[1]; Ki, reversible, competitive inhibitor", "result": "~100", "unit": "µM"}]}, {"compound": "NC(=O)c1ccccc1", "note": "[benzamide]", "values": [{"measurement": "enzymatic activity with the compound as substrate", "setting": "[2]", "result": "did not observe any enzymatic activity"}]}, {"compound": "NC(=O)CI", "note": "[iodoacetamide]", "values": [{"measurement": "inactivation of PncA", "setting": "[3]", "result": "inactivator of PncA"}]}, {"compound": "(Mycobacterium tuberculosis H37Rv)", "values": [{"measurement": "Km", "setting": "[4]", "result": "300 ± 40", "unit": "µM"}, {"measurement": "kcat", "setting": "[4]", "result": "3.8 ± 0.1", "unit": "s⁻¹"}, {"measurement": "kcat/Km", "setting": "[4]", "result": 13000, "unit": "M⁻¹ s⁻¹"}]}, {"compound": "NC(=O)c1ccc(N)nc1", "note": "[6-aminonicotinamide]", "values": [{"measurement": "enzymatic activity with the compound as substrate", "setting": "[2]", "result": "did not observe any enzymatic activity"}]}, {"compound": "N#Cc1cnccn1", "note": "[pyrazinecarbonitrile]", "values": [{"measurement": "enzymatic activity with the compound as substrate", "setting": "[2]", "result": "Neither compound is a substrate"}, {"measurement": "kinact/KI", "setting": "[5]", "result": 975, "unit": "M⁻¹ s⁻¹"}, {"measurement": "mode of inhibition", "setting": "[5]", "result": "irreversible inactivator"}, {"measurement": "kinact", "setting": "[5]; pH 7.5", "result": "Kinact = 0.06 ± 0.01 sec^−1 Ki = 61 ± 3 μM"}, {"measurement": "KI (inactivation)", "setting": "[5]; read-out: Ki (inactivation), pH 7.5", "result": 61, "unit": "µM"}]}, {"compound": "O=C(O)CN(CCN(CC(=O)O)CC(=O)O)CC(=O)O", "note": "[EDTA, ethylenediaminetetraacetic acid]", "values": [{"measurement": "effect of addition on MtPncA activity", "setting": "[2]", "result": "neither the addition of 5 mM EDTA, nor reported inhibitory metals (Zn^+2 for MtPncA) resulted in any decrease in activity"}]}]}
